Test results: ChEMBL document CHEMBL4616684, “Potential Cancer Treatment by Agonists of the Stimulator of Interferon Genes” (ACS Med Chem Lett, 2020)

Columns and labels:
[1] = target: Stimulator of interferon genes protein (Homo sapiens, UniProt Q86WV6, G230A/R293Q/R71H); assay: Activation of full length human STNG R71H/G230A/R293Q mutant expressed in Trichoplusia ni cell membrane incubated for 60 mins followed by addition of [3H]cGAMP by competitive binding assay; assay type: cell membranes
[2] = target: Stimulator of interferon genes protein (Homo sapiens) (UniProt Q86WV6); assay: Agonist activity at STING in human THP1 cells assessed as assessed as increase in IFNbeta secretion at 30 uM measured after 5 hrs by AlphaLISA assay relative to 2'3'-cGAMP; assay type: cell-based; conditions: THP-1
Chain of Stimulator of interferon genes protein (Homo sapiens) (Q86WV6 whole entry): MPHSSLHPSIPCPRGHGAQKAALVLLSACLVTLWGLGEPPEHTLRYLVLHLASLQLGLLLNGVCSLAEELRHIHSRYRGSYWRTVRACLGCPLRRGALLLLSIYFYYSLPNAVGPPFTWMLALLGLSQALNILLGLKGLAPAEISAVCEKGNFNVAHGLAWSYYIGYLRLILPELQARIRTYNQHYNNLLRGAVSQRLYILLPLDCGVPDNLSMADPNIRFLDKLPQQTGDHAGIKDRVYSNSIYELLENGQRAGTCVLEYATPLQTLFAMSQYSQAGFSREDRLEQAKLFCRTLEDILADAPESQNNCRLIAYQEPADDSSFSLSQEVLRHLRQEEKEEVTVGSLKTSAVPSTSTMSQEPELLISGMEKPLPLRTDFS

Chain of Stimulator of interferon genes protein (Q86WV6 whole entry R71H/G230A/R293Q): as the sequence (Q86WV6 whole entry) above, with R71H, G230A, R293Q counted along it

SMILES	EC50 [1]	Activity [2]
COc1cc2sc(C(=O)C[C@H](C)C(=O)O)nc2nc1OC	10.1 µM	14%
COc1cc2nc(C(=O)CCC(=O)O)sc2cc1OC	13.3 µM	56%
COc1cc2cc(C(=O)CCC(=O)O)sc2nc1OC	5.51 µM	146%
COc1cc2sc(C(=O)C[C@H](C)C(=O)O)nc2cc1Br	10.6 µM	11%

The next molecules have a lower EC50 [1] than those just listed; values first:

EC50 [1]	Activity [2]	SMILES
1.75 µM	85%	CCC(CC(=O)c1cc2nc(OC)c(OC)cc2s1)C(=O)O (configuration not stated)
1.15 µM	100%	COc1cc2sc(C(=O)C3CC3C(=O)O)cc2nc1OC (configuration not stated)
